Our source for the inhibition and Papp A→B values is ChEMBL document CHEMBL3826875, “2,8-Disubstituted-1,6-Naphthyridines and 4,6-Disubstituted-Isoquinolines with Potent, Selective Affinity for CDK8/19” (ACS Med Chem Lett, 2016).

SMILES strings stand for the structures.

The species named for one data set is Mus musculus.
Assay: not given
As to conditions: SW-620, 5 mg/kg.
Regarding `COC1CN(C(=O)c2ccc3c(N)ncc(-c4ccc(-c5cnn(C)c5)cc4)c3n2)C1`, the inhibition result is “tde”.

Test system in the next data set: not listed separately
The data set is described as follows: in vitro. As to conditions: human, Caco-2.
With `Cn1cc(-c2ccc(-c3cnc(N)c4ccc(C(=O)N5CC(C)(F)C5)nc34)cc2)cn1`, the Papp A→B at 2 h, 1 µM was determined as 27.6 ×10⁻⁶ cm/s.
On the same count and under the same terms, next, `COC1(C)CN(C(=O)c2ccc3c(N)ncc(-c4ccc(-c5cnn(C)c5)cc4)c3n2)C1`: 40.1 ×10⁻⁶ cm/s.
In the case of `Cn1cc(-c2ccc(-c3cnc(N)c4ccc(C(=O)N5CCC5)cc34)cc2)cn1`, the apical-to-basolateral permeability (Papp A→B) at 2 h, 1 µM came to 27.2 ×10⁻⁶ cm/s.
For `Cn1cc(-c2ccc(-c3cnc(N)c4ccc(C(=O)N5CCOCC5)nc34)cc2)cn1`, the Papp A→B at 2 h, 1 µM worked out at 34 ×10⁻⁶ cm/s.
The same measure, in the same setting: next, `Cn1cc(-c2ccc(-c3cnc(N)c4ccc(C(=O)NC5CC5)cc34)cc2)cn1`: 32.5 ×10⁻⁶ cm/s; `Cn1cc(-c2ccc(-c3cnc(N)c4ccc(C(=O)N5CC(F)(F)C5)cc34)cc2)cn1`: 39.7 ×10⁻⁶ cm/s; `Cn1cc(-c2ccc(-c3cnc(N)c4ccc(N5CCOC5=O)cc34)cc2)cn1`: 20.6 ×10⁻⁶ cm/s.
The compound `Cn1cc(-c2ccc(-c3cnc(N)c4ccc(C(=O)N5CC(C)(F)C5)cc34)cc2)cn1` showed a Papp A→B at 2 h, 1 µM of 25.8 ×10⁻⁶ cm/s.
Still for that read-out and setting: next, `COC1CN(C(=O)c2ccc3c(N)ncc(-c4ccc(-c5cnn(C)c5)cc4)c3n2)C1`: 28.6 ×10⁻⁶ cm/s; `Cn1cc(-c2ccc(-c3cnc(N)c4ccc(C(=O)N5CC(F)(F)C5)nc34)cc2)cn1`: 23.9 ×10⁻⁶ cm/s.
`Cn1cc(-c2ccc(-c3cnc(N)c4ccc(C(=O)N5CCC5)nc34)cc2)cn1` had a Papp A→B at 2 h, 1 µM of 42.6 ×10⁻⁶ cm/s.
Still for that read-out and setting: next, `COC1(C)CN(C(=O)c2ccc3c(N)ncc(-c4ccc(-c5cnn(C)c5)cc4)c3c2)C1`: 25.2 ×10⁻⁶ cm/s.
Same read-out and setting: next, `Cn1cc(-c2ccc(-c3cnc(N)c4ccc(C(=O)N5CCNCC5)nc34)cc2)cn1`: 0.96 ×10⁻⁶ cm/s.
